From patent US20070128217A1 (priority 2003, published 2007)

What was measured:
[1] = test system: rabbit serum obtained by immunizing a rabbit with the SARS-CoV strain Frankfurt 1; type: binding; set-up: Binding of a rabbit serum to linear peptides / Binding of a rabbit serum to looped peptides / Rabbit serum linear peptides / Rabbit serum looped peptides / Binding of a rabbit serum to linear peptides of protein N of SARS-CoV Urbani (Rabbit serum linear peptides) / Binding of a rabbit serum to looped/cyclic peptides of protein N of SARS-CoV Urbani (Rabbit serum looped peptides): unit not given here
[2] = test system: antibodies in sera from SARS patients (sera 1a, 1b, 2, 6, 37, 62, London, SARS-yellow, SARS-green); type: binding, human; set-up: Binding of serum 6 to linear peptides of protein X1 of SARS-CoV Urbani / Binding of serum 37 to linear peptides of protein X1 of SARS-CoV Urbani / Binding of serum 6 to looped/cyclic peptide (PEPSCAN-ELISA) / Binding of serum 37 to looped/cyclic peptide (PEPSCAN-ELISA) / Binding of serum 37 to looped/cyclic peptides of protein X1 of SARS-CoV Urbani / Binding of serum 6 to linear peptides of protein X2 / Binding of serum 37 to linear peptides of protein X2 / Binding of serum 37 to looped/cyclic peptides of protein X2 of SARS-CoV Urbani / Binding of serum 6 to linear peptides of protein M of SARS-CoV Urbani / Binding of serum 37 to linear peptides of protein M of SARS-CoV Urbani / Binding of serum 6 to looped/cyclic peptides of protein M of SARS-CoV Urbani / Binding of serum 37 to looped/cyclic peptides of protein M of SARS-CoV Urbani / Binding of serum 6 to linear peptides of protein X3 of SARS-CoV Urbani / Binding of serum 37 to linear peptides of protein X3 of SARS-CoV Urbani / Binding of serum 37 to looped/cyclic peptides of protein X3 of SARS-CoV Urbani / Binding of serum 6 to linear peptides of protein X4 of SARS-CoV Urbani / Binding of serum 37 to linear peptides of protein X4 of SARS-CoV Urbani / Binding of serum 37 to looped/cyclic peptides of protein X4 of SARS-CoV Urbani / Binding of serum 6 to linear peptides of protein X5 of SARS-CoV Urbani / Binding of serum 37 to linear peptides of protein X5 of SARS-CoV Urbani / Binding of serum 37 to looped/cyclic peptides of protein X5 of SARS-CoV Urbani / Binding of serum 6 to linear peptides of protein N of SARS-CoV Urbani / Binding of serum 37 to linear peptides of protein N of SARS-CoV Urbani / Binding of serum 6 to linear peptide (PEPSCAN-ELISA) / Binding of serum 1a to looped/cyclic peptides of protein N of SARS-CoV Urbani / Binding of serum 1b to looped/cyclic peptides of protein N of SARS-CoV Urbani / Binding of serum 2 to looped/cyclic peptides of protein N of SARS-CoV Urbani / Binding of serum 6 to looped/cyclic peptides of protein N of SARS-CoV Urbani / Binding of serum 37 to looped/cyclic peptides of protein N of SARS-CoV Urbani / Binding of serum 62 to looped/cyclic peptides of protein N of SARS-CoV Urbani / Binding of serum London to looped/cyclic peptides of protein N of SARS-CoV Urbani / Binding of serum SARS-green to looped/cyclic peptides of protein N of SARS-CoV Urbani: unit not given here
[3] = test system: control sera (pooled serum of ten healthy LUMC hospital workers; commercial negative donor pooled serum from the Dutch bloodbank); type: binding, human; set-up: Binding of Control serum LUMC to linear peptides / Binding of Control serum Blood-bank to linear peptides / Binding of Control serum LUMC to looped peptides / Binding of Control Serum Blood-Bank to Looped peptides / Binding of Control serum LUMC to linear peptides of the protein M of SARS-CoV Urbani / Binding of Control serum Blood-bank to linear peptides of the protein M of SARS-CoV Urbani / Binding of Control serum LUMC to looped peptides of the protein M of SARS-CoV Urbani / Binding of Control Serum Blood-Bank to Looped peptides of the protein M of SARS-CoV Urbani: unit not given here

Row | Sequence | Rabbit serum linear peptides [1] | Rabbit serum looped peptides [1] | Binding of serum 1a to linear peptides of protein M of SARS-CoV Urbani [2] | Binding of serum 1a to looped/cyclic peptides of protein M of SARS-CoV Urbani [2] | Binding of serum 1b to linear peptides of protein M of SARS-CoV Urbani [2] | Binding of serum 1b to looped/cyclic peptides of protein M of SARS-CoV Urbani [2] | Binding of serum 2 to linear peptides of protein M of SARS-CoV Urbani [2] | Binding of serum 2 to looped/cyclic peptides of protein M of SARS-CoV Urbani [2] | Binding of serum 6 to linear peptides of protein M of SARS-CoV Urbani [2] | Binding of serum 6 to looped/cyclic peptides of protein M of SARS-CoV Urbani [2] | Binding of serum 37 to linear peptides of protein M of SARS-CoV Urbani [2] | Binding of serum 37 to looped/cyclic peptides of protein M of SARS-CoV Urbani [2] | Binding of serum 62 to linear peptides of protein M of SARS-CoV Urbani [2] | Binding of serum 62 to looped/cyclic peptides of protein M of SARS-CoV Urbani [2] | Binding of serum London to linear peptides of protein M of SARS-CoV Urbani [2] | Binding of serum London to looped/cyclic peptides of protein M of SARS-CoV Urbani [2] | Binding of serum SARS-green to linear peptides of protein M of SARS-CoV Urbani [2] | Binding of serum SARS-green to looped/cyclic peptides of protein M of SARS-CoV Urbani [2] | Binding of serum SARS-yellow to linear peptides of protein M of SARS-CoV Urbani [2] | Binding of serum SARS-yellow to looped/cyclic peptides of protein M of SARS-CoV Urbani [2] | also measured
1 | GLMWLSYFVASFRLF | 0.2 | 0.2 | 0.7 | 0.6 | 0.4 | 0.2 | 0.4 | 0.6 | 0.6 | 0.8 | 0.5 | 0.5 | 0.6 | 0.6 | 0.4 | 0.3 | 0.3 | 0.3 | 0.1 | 0.7 | Binding of Control Serum Blood-Bank to Looped peptides of the protein M of SARS-CoV Urbani [3]: 0.7; Binding of Control serum Blood-bank to linear peptides of the protein M of SARS-CoV Urbani [3]: 0.6; Binding of Control serum LUMC to linear peptides of the protein M of SARS-CoV Urbani [3]: 0.2; Binding of Control serum LUMC to looped peptides of the protein M of SARS-CoV Urbani [3]: 0.6
2 | RIGNYKLNTDHAGSN | 0.1 | 0.2 | 0.7 | 0.6 | 0.5 | 0.5 | 0.6 | 0.5 | 0.3 | 0.7 | 0.5 | 0.6 | 0.6 | 0.6 | 0.6 | 0.4 | 0.6 | 0.2 | 0.1 | 0.6 | Binding of Control Serum Blood-Bank to Looped peptides of the protein M of SARS-CoV Urbani [3]: 0.8; Binding of Control serum Blood-bank to linear peptides of the protein M of SARS-CoV Urbani [3]: 0.9; Binding of Control serum LUMC to linear peptides of the protein M of SARS-CoV Urbani [3]: 0.6; Binding of Control serum LUMC to looped peptides of the protein M of SARS-CoV Urbani [3]: 0.8
